Laboratory results as given in ChEMBL document CHEMBL4680328, “Design, synthesis and evaluation of PD-L1 peptide antagonists as new anticancer agents for immunotherapy” (Bioorg Med Chem, 2021).
The source made the active and inactive calls. The calls are words filed in the database; no cut-off is given here.

Key:
CT26 [1] = assay: Antitumor activity against mouse CT26 cells assessed as reduction in cell viability at 10 to 100 ug/ml incubated for 24 to 72 hrs by MTT assay; assay type: functional, cell-based; conditions: dose 10-100 µg/ml, time 24-72 hrs
[2] = biological target: T1, Programmed cell death 1 ligand 1 (Homo sapiens, UniProt Q9NZQ7); assay: Antagonist activity at human PDL1 assessed as inhibition of human PD1 interaction with human PDL1 by ELISA
T1 sequence (Q9NZQ7 whole entry): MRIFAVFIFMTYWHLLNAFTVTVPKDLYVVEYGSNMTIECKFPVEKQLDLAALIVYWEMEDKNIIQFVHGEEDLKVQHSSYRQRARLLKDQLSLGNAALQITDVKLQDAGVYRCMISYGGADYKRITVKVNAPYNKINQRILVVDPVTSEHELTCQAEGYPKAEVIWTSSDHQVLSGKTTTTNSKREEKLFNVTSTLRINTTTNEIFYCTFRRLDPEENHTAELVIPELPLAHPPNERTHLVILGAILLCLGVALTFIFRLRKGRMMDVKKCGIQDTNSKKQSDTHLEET

CT26 [3] = assay: Antitumor activity against mouse CT26 cells xenografted in BALB/c mouse assessed as reduction in tumor growth at 10 mg/kg, ip administered for 7 days and measured on day 7 by caliper analysis; assay type: functional, organism-based; conditions: time 7.0 day
[4] = biological target: T1, Programmed cell death 1 ligand 1; assay: Antagonist activity at PDL1 overexpressing in IFN-gamma pretreated human LoVo cells assessed as restoration of human Jurkat T cell activation by measuring induction of IL-2 production at 10 ug/ml incubated for 24 hrs by ELISA; conditions: filed as antagonist, dose 10.0 µg/ml
[5] = Toxicity in BALB/c mouse xenografted with mouse CT26 cells assessed as reduction in body weight at 10 mg/kg, ip administered for 7 days and measured on day 7; assay type: organism-based; conditions: in vivo, 168 h, time 7 day
[6] = Toxicity in BALB/c mouse xenografted with mouse CT26 cells assessed as effect on liver damage at 10 mg/kg, ip administered for 7 days and measured on day 7 by hematoxylin and eosin staining based assay; assay type: organism-based; conditions: in vivo, 168 h, time 7 day
[7] = Toxicity in BALB/c mouse xenografted with mouse CT26 cells assessed as effect on kidney damage at 10 mg/kg, ip administered for 7 days and measured on day 7 by hematoxylin and eosin staining based assay; assay type: organism-based; conditions: in vivo, 168 h, time 7 day
[8] = Toxicity in BALB/c mouse xenografted with mouse CT26 cells assessed as effect on spleen damage at 10 mg/kg, ip administered for 7 days and measured on day 7 by hematoxylin and eosin staining based assay; assay type: organism-based; conditions: in vivo, 168 h, time 7 day
[9] = Toxicity in BALB/c mouse xenografted with mouse CT26 cells assessed as GPT level in blood at 10 mg/kg, ip administered for 7 days and measured on day 7 (reference value: 50 +/- 7 U/L); assay type: organism-based; conditions: in vivo, 168 h, time 7 day
[10] = Toxicity in BALB/c mouse xenografted with mouse CT26 cells assessed as GOT level in blood at 10 mg/kg, ip administered for 7 days and measured on day 7 (reference value: 93 +/- 8 U/L); assay type: organism-based; conditions: in vivo, 168 h, time 7 day
[11] = Toxicity in BALB/c mouse xenografted with mouse CT26 cells assessed as BUN level in blood at 10 mg/kg, ip administered for 7 days and measured on day 7 (reference value: 76 +/- 5 mg/dl); assay type: organism-based; conditions: in vivo, 168 h, time 7 day

| Compound | Activity (CT26 [1]) | IC50 [2] [µM] | TGI (CT26 [3]) | IL-2 induction activity [4] | Activity [5] | Activity [6] | Activity [7] | Activity [8] | Activity [9] [U/L] | Activity [10] [U/L] | Activity [11] [mg/dL] |
| --- | --- | --- | --- | --- | --- | --- | --- | --- | --- | --- | --- |
| H-GAISLAPKLQIND-OH | inactive | 4.4 | inactive | Active | Non-Toxic |  |  |  |  |  |  |
| CC[C@H](C)[C@H](NC(=O)[C@H](C)NC(=O)CN)C(=O)N[C@@H](CO)C(=O)N[C@@H](CC(C)C)C(=O)N[C@@H](C)C(=O)N1CCC[C@H]1C(=O)N[C@@H](CCCCN)C(=O)N[C@@H](CC(C)C)C(=O)N[C@@H](CCC(N)=O)C(=O)N[C@H](C(=O)N[C@@H](CC(N)=O)C(=O)N[C@H](CCC(=O)O)C(=O)O)[C@@H](C)CC | inactive | 1.56 | Active | Active | Non-Toxic | Non-Toxic | Non-Toxic | Non-Toxic | 54 | 82 | 69 |
| CC[C@H](C)[C@@H]1NC(=O)[C@H](C)NC(=O)CNC(=O)CNC(=O)[C@@H](CCC(=O)O)NC(=O)[C@H](CC(N)=O)NC(=O)[C@H]([C@@H](C)CC)NC(=O)[C@H](CCC(N)=O)NC(=O)[C@H](CC(C)C)NC(=O)[C@H](CCCCN)NC(=O)[C@@H]2CCCN2C(=O)[C@H](C)NC(=O)[C@H](CC(C)C)NC(=O)[C@H](CO)NC1=O | inactive | 0.71 | Active | Active | Non-Toxic | Non-Toxic | Non-Toxic | Non-Toxic | 51 | 97 | 81 |
| H-CGAISLAPKLQIKES-OH |  | 93.5 |  |  |  |  |  |  |  |  |  |
| CC[C@H](C)[C@H](NC(=O)[C@H](C)NC(=O)CN)C(=O)N[C@@H](CO)C(=O)N[C@@H](CC(C)C)C(=O)N[C@@H](C)C(=O)N1CCC[C@H]1C(=O)N[C@@H](CCCCN)C(=O)N[C@@H](CC(C)C)C(=O)N[C@@H](CCC(N)=O)C(=O)N[C@H](C(=O)N[C@@H](CC(N)=O)C(=O)N[C@@H](CCC(=O)O)C(=O)O)[C@@H](C)CC | inactive | 5.6 | inactive | Active | Non-Toxic |  |  |  |  |  |  |
| H-CGAISLAPKLQINES-OH |  | 80.7 |  |  |  |  |  |  |  |  |  |
| H-CGAISLAPKAQIKES-OH |  | 19.2 |  |  |  |  |  |  |  |  |  |
